Assay [1] concerns the target T1, Beta-secretase 1 (Homo sapiens, UniProt P56817). The experiment in a line: Inhibition of BACE by TR-FRET assay. A general note: In TR-FRET formats the signal depends on donor and acceptor labels being close together.
Assay [2] concerns the target T1, Beta-secretase 1. Briefly: Inhibition of BACE by secreted APPbeta release assay.

T1 sequence (P56817 whole entry): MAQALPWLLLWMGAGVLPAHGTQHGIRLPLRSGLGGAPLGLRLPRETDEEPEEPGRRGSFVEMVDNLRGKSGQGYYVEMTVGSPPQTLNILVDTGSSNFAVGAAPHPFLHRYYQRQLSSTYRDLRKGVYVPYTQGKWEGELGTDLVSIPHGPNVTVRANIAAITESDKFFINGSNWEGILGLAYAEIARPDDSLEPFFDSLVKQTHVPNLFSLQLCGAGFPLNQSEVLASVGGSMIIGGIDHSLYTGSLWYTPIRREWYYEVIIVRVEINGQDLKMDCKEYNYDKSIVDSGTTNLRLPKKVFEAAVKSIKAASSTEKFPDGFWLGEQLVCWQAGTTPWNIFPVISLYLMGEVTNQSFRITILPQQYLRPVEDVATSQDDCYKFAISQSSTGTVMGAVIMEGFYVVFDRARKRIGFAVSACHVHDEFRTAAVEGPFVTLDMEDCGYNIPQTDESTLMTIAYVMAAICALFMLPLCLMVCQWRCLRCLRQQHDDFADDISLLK

Broadly, the IC50 is the point on the concentration scale where inhibition reaches its midpoint. High values mean weaker potency in that assay, low ones greater potency in that assay. Turning to `CC#Cc1cncc(-c2ccc3c(c2)C2(N=C(C)C(N)=N2)C2(CCC(OC)CC2)O3)c1` (configuration not stated), the IC50 against Beta-secretase 1 [1] amounted to 1.4 nM; at Beta-secretase 1 [2], 2.2 nM.

For the origin of these results see ChEMBL document CHEMBL2150891, “Compounds and Their Use as BACE Inhibitors: Patent Highlight” (ACS Med Chem Lett, 2012).
